Patent publication US8143288B2, “Inhibitors of HCV replication” (priority 2005, dated 2012)
pEC50: −log10 of the molar value.

test system: HCV 1b-377-neo replicon cells; assay: HCV replicon FRET assay; assay type: cell-based; conditions: Hepatitis C virus; HCV replicon; read-out: Activity (EC50)

SMILES | pEC50
CN(Cc1ccccc1)c1ccccc1C(=O)N1CCC[C@H]1C(=O)Nc1ccc(/C=C/c2ccc(NC(=O)[C@@H]3CCCN3C(=O)c3ccccc3N(C)Cc3ccccc3)cc2)cc1 [Example 162] | 5.00 to 6.00
O=C(Nc1ccc(/C=C/c2ccc(NC(=O)[C@@H]3CCCN3C(=O)[C@H]3CCCO3)cc2)cc1)[C@H]1CCCO1 [Example 263] | 5.00 to 6.00
O=C(Nc1ccc(/C=C/c2ccc(NC(=O)[C@@H]3CCCN3C(=O)OCc3ccccc3)cc2)cc1)C1CC1 [Example 293] | 6.00 to 7.00
O=C(Nc1ccc(/C=C/c2ccc(N(C(=O)c3cccs3)C(=O)[C@@H]3CCCN3C(=O)c3cccs3)cc2)cc1)[C@@H]1CCCN1C(=O)c1cccs1 [Example 117] | 7.05 to 10.00
COc1ccc2[nH]cc(CC(=O)N3CCC[C@H]3C(=O)Nc3ccc(/C=C/c4ccc(NC(=O)[C@@H]5CCCN5C(=O)Cc5c[nH]c6ccc(OC)cc56)cc4)cc3)c2c1 [Example 35] | 7.05 to 10.00
CSCC(=O)N1CCC[C@H]1C(=O)Nc1ccc(/C=C/c2ccc(NC(=O)[C@@H]3CCCN3C(=O)Cc3cccs3)cc2)cc1 [Example 99] | 7.05 to 10.00
CO[C@H]1C[C@@H](C(=O)Nc2ccc(/C=C/c3ccc(NC(=O)[C@@H]4C[C@H](OC)CN4C(=O)OCc4ccccc4)cc3)cc2)N(C(=O)OCc2ccccc2)C1 [Example 17] | 5.00 to 6.00
O=C(Nc1ccc(/C=C/c2ccc(NS(=O)(=O)Cc3ccccc3)cc2)cc1)[C@@H]1CCCN1C(=O)Cc1ccccc1 [Example 250B] | 6.00 to 7.00
CCC/C=C/c1cccnc1C(=O)N1CCC[C@H]1C(=O)Nc1ccc(/C=C/c2ccc(NC(=O)[C@@H]3CCCN3C(=O)c3ncccc3/C=C/CCC)cc2)cc1 [Example 235] | 5.00 to 6.00
CCc1ccnc(C(=O)N2CCC[C@H]2C(=O)Nc2ccc(/C=C/c3ccc(NC(=O)[C@@H]4CCCN4C(=O)c4cc(CC)ccn4)cc3)cc2)c1 [Example 188] | 6.00 to 7.00
O=C(Nc1ccc(/C=C/c2ccc(NC(=O)[C@@H]3C[C@H](O)CN3C(=O)OCc3ccccc3)cc2)cc1)[C@@H]1C[C@H](O)CN1C(=O)OCc1ccccc1 [Example 7] | 7.05 to 10.00
O=C(O)CCC(=O)N1CCC[C@H]1C(=O)Nc1ccc(/C=C/c2ccc(NC(=O)[C@@H]3CCCN3C(=O)CCC(=O)O)cc2)cc1 [Example 30] | 6.00 to 7.00
COCC(=O)N1CCC[C@H]1C(=O)Nc1ccc(/C=C/c2ccc(NC(=O)[C@@H]3CCCN3C(=O)COC)cc2)cc1 [Example 47] | 6.00 to 7.00
O=C(Nc1ccc(/C=C/c2ccc(NC(=O)[C@@H]3CCCN3C(=O)Cc3ccccc3)cc2)cc1)c1ccccc1OCc1ccccc1 [Example 268] | 5.00 to 6.00
CC(C)CC(=O)N1CCC[C@H]1C(=O)Nc1ccc(/C=C/c2ccc(NC(=O)[C@@H]3CCCN3C(=O)CC(C)C)cc2)cc1 [Example 40] | 6.00 to 7.00
O=C(Nc1ccc(/C=C/c2ccc(NC(=O)[C@@H]3CCCN3C(=O)c3ccccc3NCc3ccccc3)cc2)cc1)[C@@H]1CCCN1C(=O)CC1CC1 [Example 152] | 6.00 to 7.00
O=C(Nc1ccc(/C=C/c2ccc(NC(=O)[C@@H]3CCCN3C(=O)c3ccccc3NCc3ccccn3)cc2)cc1)[C@@H]1CCCN1C(=O)c1ccccc1NCc1ccccn1 [Example 161] | 5.00 to 6.00
O=C(Nc1ccc(/C=C/c2ccc(NC(=O)[C@@H]3CCCN3C(=O)c3cccc4ccccc34)cc2)cc1)[C@@H]1CCCN1C(=O)c1cccc2ccccc12 [Example 163] | 5.00 to 6.00
CCc1ccccc1C(=O)N1C[C@@H](N(C)C)C[C@H]1C(=O)Nc1ccc(/C=C/c2ccc(NC(=O)[C@@H]3C[C@H](N(C)C)CN3C(=O)c3ccccc3CC)cc2)cc1 [Example 228] | 5.00 to 6.00
CC(C)(C)OC(=O)N1CCC[C@H]1C(=O)Nc1ccc(/C=C/c2ccc(NC(=O)[C@@H]3CCCN3C(=O)OC(C)(C)C)cc2)cc1 [Example 21] | 6.00 to 7.00
O=C(Nc1ccc(/C=C/c2ccc(NC(=O)[C@@H]3CCCN3C(=O)CC3CC3)cc2)cc1)[C@@H]1CCCN1C(=O)CC1CC1 [Example 26] | 7.05 to 10.00
O=C(Nc1ccc(/C=C/c2ccc(NC(=O)[C@@H]3CCCN3C(=O)c3ccsc3)cc2)cc1)[C@@H]1CCCN1C(=O)c1ccsc1 [Example 68] | 7.05 to 10.00
C=Cc1ccccc1C(=O)N1CCC[C@H]1C(=O)Nc1ccc(/C=C/c2ccc(NC(=O)[C@@H]3CCCN3C(=O)c3ccccc3C=C)cc2)cc1 [Example 238] | 5.00 to 6.00
O=C(Nc1ccc(/C=C/c2ccc(NC(=O)[C@@H]3CCCN3C(=O)N3CCCC3)cc2)cc1)[C@@H]1CCCN1C(=O)N1CCCC1 [Example 286] | 6.00 to 7.00
Cc1ccc(-c2ccccc2C(=O)N2CCC[C@H]2C(=O)Nc2ccc(/C=C/c3ccc(NC(=O)[C@@H]4CCCN4C(=O)c4ccccc4-c4ccc(C)s4)cc3)cc2)s1 [Example 239] | 5.00 to 6.00
O=C(Nc1ccc(/C=C/c2ccc(NC(=O)[C@@H]3CCCN3C(=O)c3c[nH]c4ccccc34)cc2)cc1)[C@@H]1CCCN1C(=O)c1c[nH]c2ccccc12 [Example 209] | 6.00 to 7.00
CC(=O)N1CCC[C@H]1C(=O)Nc1ccc(/C=C/c2ccc(NC(=O)[C@@H]3CCCN3C(=O)Cc3ccncc3)cc2)cc1 [Example 51] | 6.00 to 7.00
O=C(Nc1ccc(/C=C/c2ccc(NC(=O)[C@@H]3CCCN3C(=O)C3CC3)cc2)cc1)[C@@H]1CCCN1C(=O)Cc1cccnc1 [Example 63] | 7.05 to 10.00

SMILES | pEC50
O=C(Nc1ccc(/C=C/c2ccc(NC(=O)[C@@H]3CCCN3C(=O)c3ccccc3N3CCCCC3)cc2)cc1)[C@@H]1CCCN1C(=O)c1ccccc1N1CCCCC1 [Example 172] | 5.00 to 6.00
O=C(Nc1ccc(/C=C/c2ccc(NC(=O)[C@@H]3CCCN3C(=O)Cc3ccccc3)cc2)cc1)[C@H]1CCCN1C(=O)Cc1ccccc1 [Example 255] | 6.00 to 7.00
COCC(=O)N1CCC[C@H]1C(=O)Nc1ccc(/C=C/c2ccc(NC(=O)[C@@H]3CCCN3C(=O)Cc3cccs3)cc2)cc1 [Example 100] | 7.05 to 10.00
O=C(Nc1ccc(/C=C/c2ccc(NC(=O)[C@@H]3CCCN3C(=O)Cc3ccccc3Oc3ccccc3)cc2)cc1)[C@@H]1CCCN1C(=O)Cc1ccccc1Oc1ccccc1 [Example 168] | 5.00 to 6.00
COc1ccc(Cl)cc1C(=O)N1CCC[C@H]1C(=O)Nc1ccc(/C=C/c2ccc(NC(=O)[C@@H]3CCCN3C(=O)c3cc(Cl)ccc3OC)cc2)cc1 [Example 138] | 5.00 to 6.00
CCOC(=O)N1CCC[C@H]1C(=O)Nc1ccc(/C=C/c2ccc(NC(=O)[C@@H]3CCCN3C(=O)C3(C(N)=O)CC3)cc2)cc1 [Example 56] | 6.00 to 7.00
O=C(Nc1ccc(/C=C/c2ccc(NC(=O)[C@@H]3CCCN3S(=O)(=O)c3ccccc3OC(F)(F)F)cc2)cc1)[C@@H]1CCCN1S(=O)(=O)c1ccccc1OC(F)(F)F [Example 280] | 5.00 to 6.00
[N-]=[N+]=Nc1cccc(CC(=O)N2CCC[C@H]2C(=O)Nc2ccc(/C=C/c3ccc(NC(=O)[C@@H]4CCCN4C(=O)Cc4cccc(N=[N+]=[N-])c4)cc3)cc2)c1 [Example 128] | 7.05 to 10.00
CC(C)(C)OC(=O)N1CCC[C@H]1C(=O)Nc1ccc(/C=C/c2ccc(NC(=O)[C@@H]3CCCN3)cc2)cc1 [Example 22] | 5.00 to 6.00
COc1cccc(CCC(=O)N2CCC[C@H]2C(=O)Nc2ccc(/C=C/c3ccc(NC(=O)[C@@H]4CCCN4C(=O)CCc4cccc(OC)c4)cc3)cc2)c1 [Example 33] | 6.00 to 7.00
COc1ccccc1C(=O)N1CCC[C@H]1C(=O)Nc1ccc(/C=C/c2ccc(NC(=O)[C@@H]3CCCN3C(=O)Cc3cccnc3)cc2)cc1 [Example 142] | 6.00 to 7.00
O=C(Nc1ccc(/C=C/c2ccc(NC(=O)[C@@H]3CCCN3C(=O)c3ccccc3F)cc2)cc1)[C@@H]1CCCN1C(=O)c1ccccc1F [Example 107] | 6.00 to 7.00
Cc1cc(CC(=O)N2CCC[C@H]2C(=O)Nc2ccc(/C=C/c3ccc(NC(=O)[C@@H]4CCCN4C(=O)CN(C)C)cc3)cc2)on1 [Example 97] | 7.05 to 10.00
CC(=O)N1CC=C[C@H]1C(=O)Nc1ccc(/C=C/c2ccc(NC(=O)[C@@H]3C=CCN3C(=O)Cc3ccccn3)cc2)cc1 [Example 216] | 7.05 to 10.00
CC(C)(C)OC(=O)NC1(C(=O)N2CCC[C@H]2C(=O)Nc2ccc(/C=C/c3ccc(NC(=O)[C@@H]4CCCN4C(=O)C4(NC(=O)OC(C)(C)C)CC4)cc3)cc2)CC1 [Example 55] | 6.00 to 7.00
CN(C)CC(=O)N1CCC[C@H]1C(=O)Nc1ccc(/C=C/c2ccc(NC(=O)[C@@H]3CCCN3C(=O)c3ccc(N(C)C)cc3)cc2)cc1 [Example 83] | 6.00 to 7.00
O=C(Nc1ccc(/C=C/c2ccc(NC(=O)[C@@H]3CCCN3C(=O)c3ncccc3-c3cccc(Cl)c3)cc2)cc1)[C@@H]1CCCN1C(=O)c1ncccc1-c1cccc(Cl)c1 [Example 232] | 5.00 to 6.00
O=C(Nc1ccc(/C=C/c2ccc(NC(=O)[C@@H]3CCCN3C(=O)c3ccccn3)cc2)cc1)[C@@H]1CCCN1C(=O)c1ccccn1 [Example 176] | 5.00 to 6.00
CC(C)c1scnc1C(=O)N1CCC[C@H]1C(=O)Nc1ccc(/C=C/c2ccc(NC(=O)[C@@H]3CCCN3C(=O)c3ncsc3C(C)C)cc2)cc1 [Example 190] | 6.00 to 7.00
CC(=O)c1ccccc1C(=O)N1CCC[C@H]1C(=O)Nc1ccc(/C=C/c2ccc(NC(=O)[C@@H]3CCCN3C(=O)c3ccccc3C(C)=O)cc2)cc1 [Example 135] | 5.00 to 6.00
Cc1ccoc1C(=O)N1CCC[C@H]1C(=O)Nc1ccc(/C=C/c2ccc(NC(=O)[C@@H]3CCCN3C(=O)c3occc3C)cc2)cc1 [Example 200] | 6.00 to 7.00
Cc1cc(CC(=O)N2CCC[C@H]2C(=O)Nc2ccc(/C=C/c3ccc(NC(=O)[C@@H]4CCCN4C(=O)C4CCC4)cc3)cc2)on1 [Example 96] | 7.05 to 10.00
O=C(Nc1ccc(/C=C/c2ccc(NC(=O)[C@@H]3CCCN3C(=O)Cc3ccccc3)cc2)cc1)c1ccccc1 [Example 264] | 7.05 to 10.00
O=C(Nc1ccc(/C=C/c2ccc(NC(=O)[C@@H]3CCCN3C(=O)c3cccnc3Sc3ccccc3)cc2)cc1)[C@@H]1CCCN1C(=O)c1cccnc1Sc1ccccc1 [Example 196] | 5.00 to 6.00
CN(C)CC(=O)N1CCC[C@H]1C(=O)Nc1ccc(/C=C/c2ccc(NC(=O)[C@@H]3CCCN3C(=O)CN(C)C)cc2)cc1 [Example 28] | 6.00 to 7.00
O=C(Nc1ccc(/C=C/c2ccc(NC(=O)[C@@H]3CCCN3C(=O)c3ccccc3Oc3ccccc3)cc2)cc1)[C@@H]1CCCN1C(=O)c1ccccc1Oc1ccccc1 [Example 147] | 6.00 to 7.00
O=C(Nc1ccc(/C=C/c2ccc(NC(=O)[C@@H]3CCCN3C(=O)c3ccccc3C3=CCCC3)cc2)cc1)[C@@H]1CCCN1C(=O)c1ccccc1C1=CCCC1 [Example 237] | 5.00 to 6.00
